In patent US9764046B2, “Labeling composition for intraocular tissue, labeling method of intraocular tissue, and screening method” (CANON KABUSHIKI KAISHA, priority 2008, dated 2017):

How the values were obtained:
[1] = system: intraocular tissue (retinal tissue incl. photoreceptor cell layer, vitreous body) of Zebrafish 7-day-old embryo; assay: Staining of intraocular tissue of Zebrafish fry by exposure to staining liquid, ocular tissue section observed by confocal microscope; assay type: in vivo; conditions: Zebrafish 7 dpf fry, 1 μg/mL, 1 hour exposure, fixed ocular section
[2] = Excitation and fluorescence wavelengths by fluorescence spectrometer FL4500; assay type: physicochemical; conditions: in nm (unit assumed)
[3] = aqueous solution: 10 mg/mL DMSO solution diluted to 1/500 with purified water (Examples 1 to 94)

Compound	λem (fluorescence wavelength) [2, 3]	λex (excitation wavelength) [2, 3]	Staining ability [1]	λem (fluorescence wavelength) [2]	λex (excitation wavelength) [2]	Stained site [1]
Cn1c(=O)cc2c3c(c(NC4CCCCC4)ccc31)C(=O)c1ccccc1-2 [Compound 1]	619	599	++	–	–	–
CCCCCC(CC)Nc1ccc2c3c(cc(=O)n2C)-c2ccccc2C(=O)c13 (stereo not drawn) [Compound 2]	553	486	+++	–	–	–
Cn1c(=O)cc2c3c(c(NCc4ccccc4)ccc31)C(=O)c1ccccc1-2 [Compound 3]	556	480	++	–	–	–
O=C1C=Cc2cc(S(=O)(=O)O)cc(S(=O)(=O)O)c2/C1=N/Nc1ccc(S(=O)(=O)O)c2ccccc12 [Compound 4]	560	473	++	–	–	–
Cn1/c(=C/C=C/C2=[N+](CCCS(=O)(=O)[O-])CCS2)oc(=O)/c1=C/C=C1\SCCN1CCCS(=O)(=O)[O-].[Na+] [Compound 14]	–	–	++	617	588	–
CCN1/C(=C\C=C\C2=[N+](CC)c3ccccc3C23CCCCC3)C2(CCCCC2)c2ccccc21.[I-] [Compound 15]	569	496	+++	–	–	–
CCC(/C=C1\Oc2ccc(-c3ccccc3)cc2N1CC)=C\c1oc2ccc(-c3ccccc3)cc2[n+]1CC.[I-] [Compound 17]	564	459	++	–	–	1
CCN1C=C/C(=C\C=C\c2oc3ccccc3[n+]2CC)c2ccccc21.[I-] [Compound 22]	620	571	++	–	–	1
CCN1C=C/C(=C\C=C\c2cc[n+](CC)c3ccccc23)c2ccccc21.[I-] [Compound 26]	715	679	++	–	–	2
CCCCCN1/C(=C/C=C/c2oc3ccccc3[n+]2CCCCC)Oc2ccccc21.[I-] [Compound 29]	509	474	++	–	–	–

The next lines start with results.

λem (fluorescence wavelength) [2, 3]	λex (excitation wavelength) [2, 3]	Compound	Staining ability [1]	λem (fluorescence wavelength) [2]	λex (excitation wavelength) [2]	Stained site [1]
576	545	CCN(CC)CC.O=S(=O)([O-])CCC[n+]1c(/C=C/C=C2\Sc3ccccc3N2CCCS(=O)(=O)O)sc2ccccc21 [Compound 19]	++	–	–	1
567	555	CCC(/C=C1\Sc2ccccc2N1CC)=C\c1sc2ccccc2[n+]1CC.[I-] [Compound 20]	++	–	–	1
377	334	CCC(/C=C1\Sc2c(ccc3ccccc23)N1CC)=C\c1sc2c3ccccc3ccc2[n+]1CC.[I-] [Compound 21]	++	–	–	–
692	609	CN(C)c1ccc(/C=C/C=C/c2sc3ccccc3[n+]2CC(=O)O)cc1.[Br-] [Compound 24]	++	–	–	1
671	635	O=C(O)CN1/C(=C/C2=C(Cl)C(=C/c3sc4ccccc4[n+]3CC(=O)O)/CCC2)Sc2ccccc21.[Br-] [Compound 25]	++	–	–	1
575	485	CCN1/C(=C/C=C/c2sc3ccccc3[n+]2CC)Sc2ccccc21.[I-] [Compound 27]	++	–	–	1
664	495	O=C(O)CCN1/C(=C/C2=C(Cl)C(=C/c3sc4ccccc4[n+]3CCC(=O)O)/CCC2)Sc2ccccc21.[I-] [Compound 31]	++	–	–	2
